Experimental data taken from patent publication EP0673922A1, “Non-ionic iodinated dimers as X-ray contrast agents, process for their preparation and pharmaceutical compositions containing them” (CENTRO INVESTIGACION JUSTESA IMAGEN S.A., priority 1994, dated 1995).

Columns and labels:
Solubility in water = format: physicochemical
Ratte = experiment: General (acute) toxicity, LD50 after intravenous administration; format: in vivo; conditions: rat, intravenous administration (b7)
Method: (§1) Die Produkte der Erfindung der allgemeinen Formel I sind durch eine gute Löslichkeit in Wasser bei 20°C, eine Osmolalität in wässriger Lösung, die kleiner als die Osmolalität des Blutes (280 mOs/kg) ist, sowie durch eine niedrige allgemeine Toxizität gekennzeichnet, die als […] (LD₅₀) in Ratte bei intravenöser Gabe ausgedrückt wird.

[1] = Viscosity of aqueous solution; format: physicochemical
[2] = Osmolality of aqueous solution; format: physicochemical
Method: as §1

SMILES | Löslichkeit in Wasser bei 20°C und 300 mg I/ml (Solubility in water) [%] | LD₅₀ Ratte (Ratte) [g I/kg] | Viskosität bei 37°C und 300 mg I/ml [1] | Osmolatität bei 37°C und 300 mg I/ml [2] [mOs/kg]
CNC(=O)c1c(I)c(C(=O)NCC(O)CO)c(I)c(N(CCO)C(=O)C(O)C(=O)N(CCO)c2c(I)c(C(=O)NC)c(I)c(C(=O)NCC(O)CO)c2I)c1I (stereo not drawn) [Beispiel 1, N,N-Bis-(2-hydroxyethyl)-N,N'-bis-(3-[N-(2,3-dihydroxypropyl)carbamoyl]-5-(N-methylcarbamoyl)-2,4,6-triiodphenyl}hydroxymalonamid] | <60 |  |  | 
CNC(=O)c1c(I)c(C(=O)NCC(O)CO)c(I)c(N(CC(O)CO)C(=O)C(O)C(=O)N(CC(O)CO)c2c(I)c(C(=O)NC)c(I)c(C(=O)NCC(O)CO)c2I)c1I (stereo not drawn) [Beispiel 2, N,N'-Bis-(2,3-dihydroxypropyl)-N,N'-bis-{3-[N-(2,3-dihydroxypropyl)carbamoyl]-5-(N-methylcarbamoyl)-2,4,6-triiodphenyl}-hydroxymalonamid] | <60 |  |  | 
O=C(NCCO)c1c(I)c(C(=O)NCC(O)CO)c(I)c(N(CCO)C(=O)CC(=O)N(CCO)c2c(I)c(C(=O)NCCO)c(I)c(C(=O)NCC(O)CO)c2I)c1I (stereo not drawn) [Beispiel 3, N,N'-Bis-(2-hydroxyethyl)-N,N'-bis-{3-[N-(2,3-dihydroxypropyl)-carbamoyl]-5-[N-(2-hydroxyethyl)carbamoyl]-2,4,6-triiodphenyl}-malonamid] | >60 | >15 | 7,5 mPa·s | 160
O=C(NCCO)c1c(I)c(C(=O)NCC(O)CO)c(I)c(N(CC(O)CO)C(=O)CC(=O)N(CC(O)CO)c2c(I)c(C(=O)NCCO)c(I)c(C(=O)NCC(O)CO)c2I)c1I (stereo not drawn) [Beispiel 4, N,N'-Bis-(2,3-hydroxypropyl)-N,N'-bis-{3-[N-(2,3-dihydroxypropyl)carbamoyl]-5-[N-(2-hydroxyethyl)carbamoyl]-2,4,6-triiodphenyl}malonamid] | >60 | >15 | 6,8 mPa·s | 190
CN(C(=O)C(O)C(=O)N(C)c1c(I)c(C(N)=O)c(I)c(C(=O)NCC(O)CO)c1I)c1c(I)c(C(N)=O)c(I)c(C(=O)NCC(O)CO)c1I (stereo not drawn) [Beispiel 5, N,N'-Dimethyl-N,N'-bis-{5-carbamoyl-3-[N-(2,3-dihydroxypropyl)carbamoyl]-2,4,6-triiodphenyl}hydroxymalonamid] | <60 |  |  | 
CN(C(=O)C(O)C(=O)N(C)c1c(I)c(C(N)=O)c(I)c(C(=O)NC(CO)C(O)CO)c1I)c1c(I)c(C(N)=O)c(I)c(C(=O)NC(CO)C(O)CO)c1I (stereo not drawn) [Beispiel 6, N,N'-Dimethyl-N,N'-bis-{5-carbamoyl-3-[N-(1-hydroxymethyl-2,3-dihydroxypropyl)carbamoyl]-2,4,6-triiodphenyl}-hydroxymalonamid] | <60 |  |  | 
CN(C(=O)C(O)C(=O)N(C)c1c(I)c(C(=O)NCC(O)CO)c(I)c(C(=O)NCC(O)CO)c1I)c1c(I)c(C(N)=O)c(I)c(C(=O)NCC(O)CO)c1I (stereo not drawn) [Beispiel 7, N,N'-Dimethyl-N-{5-carbamoyl-3-[N-(2,3-dihydroxypropyl)carbamoyl]-2,4,6-triiodphenyl}-N'-{3,5-bis-[N-(2,3-dihydroxypropyl)carbamoyl]-2,4,6-triiodphenyl}hydroxymalonamid] | >60 | >15 | 8,1 mPa·s | 170
NC(=O)c1c(I)c(C(=O)NCC(O)CO)c(I)c(N(CCO)C(=O)C(O)C(=O)N(CCO)c2c(I)c(C(N)=O)c(I)c(C(=O)NCC(O)CO)c2I)c1I (stereo not drawn) [Beispiel 8, N,N'-Bis-(2-hydroxyethyl)-N,N'-bis-{5-carbamoyl-3-[N-(2,3-dihydroxypropyl)carbamoyl]-2,4,6-triiodphenyl}-hydroxymalonamid] | <60 |  |  | 
NC(=O)c1c(I)c(C(=O)NC(CO)C(O)CO)c(I)c(N(CCO)C(=O)C(O)C(=O)N(CCO)c2c(I)c(C(N)=O)c(I)c(C(=O)NC(CO)C(O)CO)c2I)c1I (stereo not drawn) [Beispiel 9, N,N'-Bis-(2-hydroxyethyl)-N,N'-bis-{5-carbamoyl-3-[N-(1-hydroxymethyl-2,3-dihydroxy-propyl)carbamoyl]-2,4,-6-triiodphenyl}hydroxymalonamid] | <60 |  |  | 
O=C(NCCO)c1c(I)c(C(=O)NCC(O)CO)c(I)c(N(CCO)C(=O)C(O)C(=O)N(CCO)c2c(I)c(C(=O)NCCO)c(I)c(C(=O)NCC(O)CO)c2I)c1I (stereo not drawn) [Beispiel 10, N,N'-Bis-(2-hydroxyethyl)-N,N'-bis-{3-[N-(2,3-dihydroxypropyl)carbamoyl]-5-[N-(2-hydroxyethyl)carbamoyl]-2,4,6-triiodphenyl}hydroxymalonamid] | >60 | >15 | 7,3 mPa·s | 170
O=C(NCCO)c1c(I)c(C(=O)NCC(O)CO)c(I)c(N(CC(O)CO)C(=O)C(O)C(=O)N(CC(O)CO)c2c(I)c(C(=O)NCCO)c(I)c(C(=O)NCC(O)CO)c2I)c1I (stereo not drawn) [Beispiel 11, N,N'-Bis-(2,3-dihydroxypropyl)-N,N'-bis-{3-[N-(2,3-dihydroxypropyl)carbamoyl]-5-[N-(2-hydroxyethyl)carbamoyl]-2,4,6-triiodphenyl}hydroxymalonamid] | >60 | >15 | 7,8 mPa·s | 210
NC(=O)c1c(I)c(C(=O)NCC(O)CO)c(I)c(N(CC(O)CO)C(=O)C(O)C(=O)N(CC(O)CO)c2c(I)c(C(N)=O)c(I)c(C(=O)NCC(O)CO)c2I)c1I (stereo not drawn) [Beispiel 12, N,N'-Bis-(2,3-dihydroxypropyl)-N,N'-bis-{5-carbamoyl-3-[N-(2,3-dihydroxypropyl)carbamoyl]-2,4,6-triiodphenyl}-hydroxymalonamid] | >60 | >15 | 6,5 mPa·s | 240
CN(C(=O)C(=O)C(=O)N(C)c1c(I)c(C(=O)NCC(O)CO)c(I)c(C(=O)NCC(O)CO)c1I)c1c(I)c(C(=O)NCC(O)CO)c(I)c(C(=O)NCC(O)CO)c1I (stereo not drawn) [Beispiel 13, N,N'-Dimethyl-N,N'-bis-{3,5-bis[N-(2,3-dihydroxypropyl)carbamoyl]-2,4,6-triiodphenyl}cetomalonamid] | >60 | >15 | 10,9 mPa·s | 160
CN(C(=O)C(=O)C(=O)N(C)c1c(I)c(C(N)=O)c(I)c(C(=O)NCC(O)CO)c1I)c1c(I)c(C(N)=O)c(I)c(C(=O)NCC(O)CO)c1I (stereo not drawn) [Beispiel 14, N,N'-Dimethyl-N,N'-bis-{5-carbamoyl-3-[N-(2,3-dihydroxypropyl)carbamoyl]-2,4,6-triiodphenyl}cetomalonamid] | <60 |  |  | 
CC(=O)N(CC(O)CN(C(C)=O)c1c(I)c(C(=O)NCC(O)CO)c(I)c(C(=O)NCC(O)CO)c1I)c1c(I)c(C(=O)NCC(O)CO)c(I)c(C(=O)NCC(O)CO)c1I (stereo not drawn) [IODIXANOL, Iodixanol, reference compound] | >60 | >15 | 8,7 mPa·s | 200
